# Source: patent US11236352B2, “Transgenic plants resistant to non-protein amino acids” (Yeda Research and Development Co. Ltd., priority 2011, dated 2022)
# Key:
# HsmtPheRS = target: T1, HsmtPheRS (Homo sapiens, UniProt O95363); settings: mitochondrial enzyme, no editing domain; cited from earlier work
# T1 sequence (O95363 1-451): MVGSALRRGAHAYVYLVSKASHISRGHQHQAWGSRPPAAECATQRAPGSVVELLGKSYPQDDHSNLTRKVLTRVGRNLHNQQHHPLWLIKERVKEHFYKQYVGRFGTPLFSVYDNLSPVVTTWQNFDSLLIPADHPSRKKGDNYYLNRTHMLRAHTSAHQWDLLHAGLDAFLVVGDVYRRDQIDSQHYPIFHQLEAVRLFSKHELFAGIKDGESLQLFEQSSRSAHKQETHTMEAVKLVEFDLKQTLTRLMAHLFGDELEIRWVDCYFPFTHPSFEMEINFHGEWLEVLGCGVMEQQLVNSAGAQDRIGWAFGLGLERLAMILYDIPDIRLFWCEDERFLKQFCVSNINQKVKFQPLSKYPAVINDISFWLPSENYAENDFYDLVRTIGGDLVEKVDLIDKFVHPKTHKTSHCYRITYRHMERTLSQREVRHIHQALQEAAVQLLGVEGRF
# Arabidopsis thaliana [1] = settings: added to an agar medium; read-out: concentration that inhibits root growth by 50%; cited from earlier work
# [2] = tested on: cyt-PheRS Arabidopsis thaliana lines; test: m-Tyr resistance: root growth on MS medium with m-Tyr, cyt-PheRS line; assay type: in vivo; settings: cyt-PheRS expressing line, 20 μM m-Tyr in growth media, 7 days
# Method: (§1) Root growth of Wt (wild type), Cyt (transgenic plant containing cytosol localized bacterial PheRS) and Dual (transgenic plant containing plastids localized bacterial PheRS). Upper panels: samples grown on media containing 20 μM m-Tyrosine. Bottom panels: non-treated samples.
# (§2) To assess effects of m-Tyr on Arabidopsis root growth, […] of m-Try was added to MS medium. Arabidopsis seeds were sterilized by shaking in 30% bleach. 0.3% Triton X-100 for 10 min, followed by three rinses with sterile distilled water. Petri dishes with seeds on agar medium were cold-stratified for 72 h at 4° C., and were subsequently placed vertically in green-house at 23° C., under 16:8 h light/dark cycle. After 7 days of growth, the root length of the plant was analyzed.
# (§3) The bacterial PheRS genes described in the “Material and Methods” section hereinabove were expressed under the control of the constitutive 35S CaMV promoter. A transit peptide was appended to N-terminus of EcPheRS-α and EcPheRS-β subunits of the bacterial enzyme in order to direct them into the mitochondria and chloroplast of Arabidopsis thaliana. The second constructs pair including PheRS-α and PheRS-β lacked the transit peptides. […] Several independent transgenic lines were obtained, and their resistance to m-Tyr was analyzed. […]
# [3] = tested on: wild-type Arabidopsis thaliana; test: m-Tyr resistance: root growth on MS medium with m-Tyr, wild type; assay type: in vivo; settings: wild type plants, 20 μM m-Tyr in growth media, 7 days
# Method: as §1, §2, §3
# Arabidopsis thaliana [4] = settings: in vivo; cited from earlier work
# bacterial PheRS [5] = settings: incubated with bacterial PheRS; cited from earlier work
# [6] = tested on: mtp-PheRS Arabidopsis thaliana lines; test: m-Tyr resistance: root growth on MS medium with m-Tyr, mtp-PheRS line; assay type: in vivo; settings: lines containing mtp-PheRS, 20 μM m-Tyr in growth media, 7 days
# Method: as §1, §2, §3
# bacterial PheRS [7] = target: bacterial PheRS (Thermus thermophilus, UniProt Q5SGX1+Q5SGX2); settings: FIG. 1; cited from earlier work
# bacterial PheRS (Thermus thermophilus, UniProt Q5SGX1+Q5SGX2), sequence (Q5SGX1 whole entry): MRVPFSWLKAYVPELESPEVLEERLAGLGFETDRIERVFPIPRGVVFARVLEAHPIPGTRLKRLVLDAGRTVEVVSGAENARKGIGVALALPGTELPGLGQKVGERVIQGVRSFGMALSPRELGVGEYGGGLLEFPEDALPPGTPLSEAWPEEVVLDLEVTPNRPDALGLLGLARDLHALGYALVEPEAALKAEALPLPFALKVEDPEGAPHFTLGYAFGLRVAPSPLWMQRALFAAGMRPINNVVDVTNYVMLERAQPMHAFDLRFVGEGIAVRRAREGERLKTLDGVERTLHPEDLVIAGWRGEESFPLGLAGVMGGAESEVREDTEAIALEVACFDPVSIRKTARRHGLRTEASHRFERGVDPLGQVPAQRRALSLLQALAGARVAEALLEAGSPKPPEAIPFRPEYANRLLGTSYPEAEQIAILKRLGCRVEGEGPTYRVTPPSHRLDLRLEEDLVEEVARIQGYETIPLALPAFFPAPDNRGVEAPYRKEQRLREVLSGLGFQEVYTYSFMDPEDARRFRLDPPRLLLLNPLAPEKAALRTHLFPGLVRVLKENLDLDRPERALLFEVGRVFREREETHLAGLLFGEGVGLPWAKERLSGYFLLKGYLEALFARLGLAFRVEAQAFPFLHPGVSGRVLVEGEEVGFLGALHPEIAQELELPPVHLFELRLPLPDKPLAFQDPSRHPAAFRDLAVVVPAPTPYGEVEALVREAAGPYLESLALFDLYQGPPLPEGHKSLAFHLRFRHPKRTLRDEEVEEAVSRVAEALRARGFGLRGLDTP
# bacterial PheRS (Thermus thermophilus, UniProt Q5SGX1+Q5SGX2), sequence (Q5SGX2 whole entry): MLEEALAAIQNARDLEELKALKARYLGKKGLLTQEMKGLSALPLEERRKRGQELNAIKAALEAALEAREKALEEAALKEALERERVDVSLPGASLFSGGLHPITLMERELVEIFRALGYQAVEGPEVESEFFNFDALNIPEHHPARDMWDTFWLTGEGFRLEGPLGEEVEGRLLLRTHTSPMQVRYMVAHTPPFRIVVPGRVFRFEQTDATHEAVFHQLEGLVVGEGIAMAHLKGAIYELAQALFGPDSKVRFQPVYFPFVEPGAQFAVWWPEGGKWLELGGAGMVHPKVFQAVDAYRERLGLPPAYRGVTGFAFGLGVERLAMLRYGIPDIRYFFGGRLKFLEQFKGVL
compound,measurement,setting,value
"N[C@@H](Cc1cccc(O)c1)C(=O)O [m-Tyr, meta-tyrosine]",synthesis of m-Tyr-tRNA^Phe,HsmtPheRS,could stably synthesize m-Tyr-tRNA^Phe
same,IC50,Arabidopsis thaliana [1],2000 nM
same,root development,[2],less developed compared to the line containing mtp-PheRS
same,root development,[3],didn't develop
same,concentration that completely prevents seed germination,Arabidopsis thaliana [4],50 µM
same,deacylation of m-Tyr from preloaded m-Tyr-tRNA^Phe,bacterial PheRS [5],deacylated from the tRNA
same,root development,[6],developed up to the half of the length of the non-treated plants
same,mischarging of tRNA^Phe with m-Tyr,bacterial PheRS [7],no mischarging
